The results in this text go back to patent US4181710A, “Rumen-stable pellets” (Eastman Kodak Company, priority 1978, dated 1980).

Values after ≈ are worked out from the molar mass of the structure shown.

This series is described as follows: Solubility of amino acids in water. The class given is physicochemical. The conditions noted are these: at 25° C.

For orientation: solubility means the dissolved amount per volume that the medium holds. On to `CC(N)C(=O)O` (racemic) [DL - Alanine], for which the solubility is 167 mg/mL (≈ 1870 mM).

For the compound `CSCCC(N)C(=O)O` (racemic) [DL - Methionine], the solubility was found to be 40 mg/mL (≈ 268 mM).
